Data: ChEMBL document CHEMBL1201862, “PubChem BioAssay data set” (2004)
Where “and” joins values, the source holds several entries; their conditions need not be identical. Equal values may be shown once.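 Interpolation was linear, between the two tested concentrations surrounding the appropriate level; five concentrations were tested over 48 hours in 96-well plates. GI50: concentration for 50% inhibition of growth.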 Calls of active or inactive are those of the source. Rule as the data show it: active = GI50 up to about 1.1 µM and inactive = higher. Non-standard residues stand in square brackets, D forms with d. Residues, ends and D or L forms follow the SMILES beside them. *: point of attachment. NMeF = CN[CH](Cc1ccccc1)C(=O)O; NMeV = CN[CH](C(=O)O)C(C)C; Boc = CC(C)(C)OC(=O)*; OBn = c1ccc(CO*)cc1

How the values were obtained:
Test in all cases: inhibition of tumour cell growth, NCI panel, 48 h
[1] = test system: A549
[2] = test system: DU-145
[3] = test system: HOP-18
[4] = test system: K562
[5] = test system: M19-MEL
[6] = test system: MCF7
[7] = test system: NCI-H23
[8] = test system: SNB-75
[9] = test system: SW-620
[10] = test system: 786-0
[11] = test system: A498
[12] = test system: ACHN
[13] = test system: BT-549
[14] = test system: CAKI-1
[15] = test system: CCRF-CEM
[16] = test system: COLO 205
[17] = test system: EKVX
[18] = test system: HCC 2998
[19] = test system: HCT-116
[20] = test system: HCT-15
[21] = test system: HL-60
[22] = test system: HOP-62
[23] = test system: HOP-92
[24] = test system: HT-29
[25] = test system: Hs-578T
[26] = test system: IGROV-1
[27] = test system: KM12
[28] = test system: LOX IMVI
[29] = test system: M14
[30] = test system: MDA-MB-231
[31] = test system: MDA-MB-435
[32] = test system: MDA-N
[33] = test system: MOLT-4
[34] = test system: Malme-3M
[35] = test system: NCI-H226
[36] = test system: NCI-H460
[37] = test system: NCI-H522
[38] = test system: NCI/ADR-RES
[39] = test system: OVCAR-3
[40] = test system: OVCAR-4
[41] = test system: OVCAR-5
[42] = test system: OVCAR-8
[43] = test system: PC-3
[44] = test system: RPMI-8226
[45] = test system: RXF 393
[46] = test system: SF-268
[47] = test system: SF-295
[48] = test system: SF-539
[49] = test system: SK-MEL-28
[50] = test system: SK-MEL-2
[51] = test system: SK-MEL-5
[52] = test system: SK-OV-3
[53] = test system: SN12C
[54] = test system: SNB-19
[55] = test system: SR
[56] = test system: T47D
[57] = test system: TK-10
[58] = test system: U-251
[59] = test system: UACC-257
[60] = test system: UACC-62
[61] = test system: UO-31
[62] = test system: DMS-114
[63] = test system: DMS-273
[64] = test system: DLD-1
[65] = test system: LXFL 529

`O=C1C=C[C@@]23C[C@@H](NC4=C2C2=NCCc5c[nH]c(c52)C4=O)SC3=C1` was tested, and the GI50 [1] was 14.6 µM (inactive), the GI50 [2] was 18.2 µM (inactive) and the GI50 [3] was 16.7 µM (inactive). For the same molecule, the GI50 [4] was 4.74 µM (inactive), the GI50 [5] was 2.03 µM (inactive) and the GI50 [6] was 3.82 µM (inactive). The GI50 [7] was 3.49 µM (inactive), the GI50 [8] was 19.8 µM (inactive) and the GI50 [9] was 3.15 µM (inactive).
In the case of `O=C1CSC(c2ccccc2)N1c1nc2cc3sc(N4C(=O)CSC4c4ccccc4)nc3cc2s1` (stereo not drawn), the GI50 [10] was > 100 µM (inactive), the GI50 [11] was > 100 µM (inactive) and the GI50 [1] was 8.17 µM (inactive). The GI50 [12] was 35.6 µM (inactive), the GI50 [13] was 37.6 µM (inactive) and the GI50 [14] was 39.5 µM (inactive). For the same molecule, the GI50 [15] was 4.35 µM (inactive), the GI50 [16] was 2.85 µM (inactive) and the GI50 [2] was 15.2 µM (inactive). For the same molecule, the GI50 [17] was 22.1 µM (inactive), the GI50 [18] was > 93.3 µM (inactive) and the GI50 [19] was 24.6 µM (inactive). For the same molecule, the GI50 [20] was 10.2 µM, the GI50 [21] was > 63.7 µM (inactive) and the GI50 [22] was > 100 µM (inactive). For the same molecule, the GI50 [23] was > 100 µM (inactive), the GI50 [24] was 19.1 µM (inactive) and the GI50 [25] was > 51.2 µM (inactive). The GI50 [26] was 23.4 µM (inactive), the GI50 [4] was 47.4 µM (inactive) and the GI50 [27] was 17.5 µM (inactive). For the same molecule, the GI50 [28] was 25.4 µM (inactive), the GI50 [29] was > 87.3 µM (inactive) and the GI50 [6] was 12.9 µM (inactive). The GI50 [30] was 68.7 µM (inactive), the GI50 [31] was 55.6 µM (inactive) and the GI50 [32] was > 64.4 µM (inactive). For the same molecule, the GI50 [33] was 5.86 µM (inactive), the GI50 [34] was > 87.7 µM (inactive) and the GI50 [35] was 15.8 µM (inactive). The GI50 [7] was 15 µM (inactive), the GI50 [36] was 3.1 µM (inactive) and the GI50 [37] was 6.87 µM (inactive). For the same molecule, the GI50 [38] was 25.2 µM (inactive), the GI50 [39] was 36.6 µM (inactive) and the GI50 [40] was 60.1 µM (inactive). For the same molecule, the GI50 [41] was 60 µM (inactive), the GI50 [42] was 70.8 µM (inactive) and the GI50 [43] was 48.4 µM (inactive). The GI50 [44] was 71.1 µM (inactive), the GI50 [45] was > 100 µM (inactive) and the GI50 [46] was > 87.3 µM (inactive). The GI50 [47] was > 100 µM (inactive), the GI50 [48] was 3.03 µM (inactive) and the GI50 [49] was > 100 µM (inactive). For the same molecule, the GI50 [50] was 63.7 µM (inactive), the GI50 [51] was 32.3 µM (inactive) and the GI50 [52] was > 100 µM (inactive). The GI50 [53] was 32.4 µM (inactive), the GI50 [54] was 78.3 µM (inactive) and the GI50 [8] was 38 µM (inactive). The GI50 [55] was 16.5 µM (inactive), the GI50 [9] was 9.95 µM (inactive) and the GI50 [56] was 61 µM (inactive). The GI50 [57] was 53.2 µM (inactive), the GI50 [58] was 38.2 µM (inactive) and the GI50 [59] was 85.1 µM (inactive). For the same molecule, the GI50 [60] was 56.8 µM (inactive) and the GI50 [61] was 40.6 µM (inactive).
For `CC(C)C(NC(=O)OC(C)(C)C)C(=O)N(C)C(Cc1ccccc1)C(=O)N(C)C(C(=O)OCc1ccccc1)C(C)C` (stereo not drawn) (Boc-Val-[NMeF]-[NMeV]-OBn; configuration not given here), the GI50 [10] was > 100 µM (inactive), the GI50 [1] was 39.5 µM (inactive) and 46.8 µM (inactive) and the GI50 [16] was 37.7 µM (inactive) and 44.2 µM (inactive). The GI50 [62] was 29.4 µM (inactive) and 30.5 µM (inactive), the GI50 [63] was 34.1 µM (inactive) and 33.8 µM (inactive) and the GI50 [17] was > 100 µM (inactive) and 62.1 µM (inactive). For the same molecule, the GI50 [18] was > 100 µM (inactive), the GI50 [19] was 40 µM (inactive) and 28.4 µM (inactive) and the GI50 [20] was 67.1 µM and 79.3 µM. The GI50 [21] was 33.4 µM (inactive) and 19.5 µM (inactive), the GI50 [22] was 85.9 µM (inactive) and the GI50 [26] was 91.2 µM (inactive). The GI50 [29] was 59.3 µM (inactive) and 94.4 µM (inactive), the GI50 [34] was > 100 µM (inactive) and the GI50 [35] was > 100 µM (inactive) and 73.5 µM (inactive). For the same molecule, the GI50 [7] was 37.1 µM (inactive) and 68.5 µM (inactive), the GI50 [36] was 39 µM (inactive) and 41 µM (inactive) and the GI50 [37] was 12.2 µM (inactive) and 22.8 µM (inactive). For the same molecule, the GI50 [42] was 74.6 µM (inactive) and 70.5 µM (inactive), the GI50 [46] was > 100 µM (inactive) and the GI50 [47] was 17.6 µM (inactive) and 34.6 µM (inactive). The GI50 [49] was > 100 µM (inactive), the GI50 [51] was 15.4 µM (inactive) and the GI50 [52] was > 100 µM (inactive). For the same molecule, the GI50 [55] was 27.9 µM (inactive) and 22.6 µM (inactive), the GI50 [9] was 75.2 µM (inactive) and the GI50 [57] was > 100 µM (inactive). The GI50 [58] was 82.2 µM (inactive) and 43.8 µM (inactive), the GI50 [60] was 81.8 µM (inactive) and the GI50 [61] was 85.3 µM (inactive) and 53.1 µM (inactive).
For `COc1ccc(/C=N/NC(=O)c2sc(=S)n(-c3ccccc3)c2N)cc1`, the GI50 [1] was > 100 µM (inactive), the GI50 [12] was 20.7 µM (inactive) and the GI50 [15] was > 100 µM (inactive). For the same molecule, the GI50 [16] was > 100 µM (inactive), the GI50 [64] was > 100 µM (inactive) and the GI50 [18] was 73.5 µM (inactive). For the same molecule, the GI50 [19] was 91.6 µM (inactive), the GI50 [21] was > 100 µM (inactive) and the GI50 [3] was 39.4 µM (inactive). For the same molecule, the GI50 [22] was 22.2 µM (inactive), the GI50 [23] was 9.51 µM (inactive) and the GI50 [24] was 73.8 µM (inactive). The GI50 [26] was > 100 µM (inactive), the GI50 [4] was 1.48 µM (inactive) and the GI50 [27] was 7.85 µM (inactive). The GI50 [65] was 51.2 µM (inactive), the GI50 [5] was > 100 µM (inactive) and the GI50 [33] was > 100 µM (inactive). For the same molecule, the GI50 [35] was > 100 µM (inactive), the GI50 [7] was > 100 µM (inactive) and the GI50 [36] was 6.04 µM (inactive). For the same molecule, the GI50 [37] was 42.1 µM (inactive), the GI50 [39] was 83.9 µM (inactive) and the GI50 [41] was > 100 µM (inactive). The GI50 [42] was 44.7 µM (inactive), the GI50 [46] was 21.4 µM (inactive) and the GI50 [47] was 19.8 µM (inactive). For the same molecule, the GI50 [48] was 6.92 µM (inactive), the GI50 [49] was 33.1 µM (inactive) and the GI50 [51] was 71.4 µM (inactive). For the same molecule, the GI50 [52] was 11.2 µM (inactive), the GI50 [54] was 28.1 µM (inactive) and the GI50 [8] was 1.6 µM (inactive). For the same molecule, the GI50 [55] was > 100 µM (inactive), the GI50 [9] was > 100 µM (inactive) and the GI50 [57] was 7.14 µM (inactive). The GI50 [58] was 66.2 µM (inactive), the GI50 [59] was > 100 µM (inactive) and the GI50 [60] was 89.1 µM (inactive). The GI50 [61] was > 100 µM (inactive).
